Experimental data from US9243038B2, “Macrocyclic insulin-degrading enzyme (IDE) inhibitors and uses thereof” (President and Fellows of Harvard College, priority 2011, dated 2016).
Like-named read-outs stand apart in the source and are kept apart here. Each block holds one compound with its values, some of them ahead of it.

Columns and labels:
IDE [1] = target: T1, IDE (Homo sapiens (Human), UniProt P14735); experiment: In vitro selection of DNA-templated macrocycle library against immobilized IDE; assay type: binding
T1 sequence (P14735 whole entry): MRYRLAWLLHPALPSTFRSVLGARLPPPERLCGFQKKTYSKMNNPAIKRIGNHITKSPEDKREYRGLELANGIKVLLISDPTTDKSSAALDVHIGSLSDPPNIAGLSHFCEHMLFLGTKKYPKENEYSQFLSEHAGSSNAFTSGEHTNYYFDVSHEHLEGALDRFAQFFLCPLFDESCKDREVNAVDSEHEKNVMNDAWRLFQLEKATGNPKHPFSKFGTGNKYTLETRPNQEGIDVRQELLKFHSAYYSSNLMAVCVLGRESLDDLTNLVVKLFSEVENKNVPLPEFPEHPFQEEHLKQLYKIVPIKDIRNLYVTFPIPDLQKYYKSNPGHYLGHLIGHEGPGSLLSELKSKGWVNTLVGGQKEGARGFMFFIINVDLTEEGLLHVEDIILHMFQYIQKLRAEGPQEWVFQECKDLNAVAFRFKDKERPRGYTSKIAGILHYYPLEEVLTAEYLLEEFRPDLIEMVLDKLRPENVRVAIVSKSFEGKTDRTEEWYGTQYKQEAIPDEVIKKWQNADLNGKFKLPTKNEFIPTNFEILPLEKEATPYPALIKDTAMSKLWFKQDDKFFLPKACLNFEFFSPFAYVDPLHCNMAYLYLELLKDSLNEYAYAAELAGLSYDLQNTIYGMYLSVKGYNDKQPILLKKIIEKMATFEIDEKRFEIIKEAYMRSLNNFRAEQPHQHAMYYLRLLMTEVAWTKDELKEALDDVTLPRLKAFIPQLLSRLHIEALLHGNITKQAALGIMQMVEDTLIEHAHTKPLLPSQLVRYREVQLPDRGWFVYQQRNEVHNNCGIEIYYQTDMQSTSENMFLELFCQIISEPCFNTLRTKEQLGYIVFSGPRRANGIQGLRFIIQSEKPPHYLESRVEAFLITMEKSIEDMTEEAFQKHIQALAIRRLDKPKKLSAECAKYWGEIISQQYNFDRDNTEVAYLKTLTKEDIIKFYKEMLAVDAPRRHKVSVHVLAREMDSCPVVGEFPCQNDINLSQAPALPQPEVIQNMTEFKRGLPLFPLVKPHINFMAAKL
Procedure: Selections of the DNA-templated library were performed as described previously.^9 20 μg of IDE was immobilized on 30 μL of Dynabeads His-Tag Isolation and Pulldown (Invitrogen) magnetic particles according to the manufacturer's instructions. Elution of captured DNA-library members was performed by incubating the protein-loaded particles with 200 mM imidazole. Prior to PCR amplification, imidazole was removed from the eluted samples by gel filtration using Princeton Separations Sephadex minicolumns.
Insulin-degrading enzyme (IDE) protein was obtained in its purified form with a poly-histidine tag and immobilized on magnetic particles coated with cobalt. After incubation with the DNA-templated library, non-binding library members were washed away with buffer, and protein-library member complexes were eluted from resin with imidazole (FIG. 1). DNA-templated library members enriched after target selection were PCR amplified with target-specific barcoded primers that appended adaptors required for Illumina high-throughput DNA sequencing. We performed two independent selection replicates with IDE and three independent selections against empty resin as negative control selections. These five barcoded selection PCR amplicons were pooled in equimolar quantities and submitted for Illumina high-throughput DNA sequencing. High-throughput sequencing yielded 19 million sequence reads—an average of ˜3.8 million sequence reads per selection.
After one round of in vitro selection, we identified DNA sequences corresponding to macrocycles A12-B8-C11-D5 (3), A12-B8-C5-D5 (5), A12-B8-C6-D5 (6) and A12-B8-C8-D5 (2) enriched between 4- to 14-fold against IDE (FIG. 2a, IDE selection 1); these same macrocycles were also enriched 3- to 6-fold in a replicate IDE selection (FIG. 2a, IDE selection 2).

IDE [2] = target: T1, IDE; experiment: In vitro protease assay with IDE (cleavage of fluorophore-quencher substrate peptide); assay type: biochemical; details: for potency of trans-olefin isomer relative to corresponding cis-olefin isomer: trans vs cis isomer, IDE inhibition; for activity / potency against IDE (in words): derivatives compared with 6b
Procedure: Protease assays with IDE and neprilysin were performed using Mca-RPPGFSAFK(Dnp)-OH substrate peptide (R&D Systems, SEQ ID NO: 6) and purified recombinant human IDE and recombinant human neprilysin (R&D Systems) according to the manufacturer's instructions. For IDE, 2 μL of small molecule dissolved in DMSO was combined with 48 μL 0.2 μg/mL IDE in IDE assay buffer (50 mM Tris, 1 M NaCl, pH 7.5). 50 μL of 20 μM substrate peptide in IDE assay buffer was then added to initiate the reaction, and peptide cleavage was monitored on a fluorescent plate reader (excitation=320 nm; emission=405 nm) for 5 minutes. The above protocol was also used for assaying neprilysin activity, substituting the neprilysin assay buffer (50 mM Tris, 0.05% Brij-35, pH 9.0).
Compounds were synthesized as described previously;^9 in most cases the macrocycle synthesis yielded two isomers corresponding to the cis and trans olefins generated after macrocyclization. Macrocycles were assayed for IDE inhibition by monitoring cleavage of a substrate peptide^13 containing a fluorophore-quencher pair such that cleavage of the model substrate results in increased fluorescence.

trypsin = experiment: Trypsin activity assay (Z-Arg-AMC substrate); details: even when assayed at 100 μM
plasma IDE activity = plasma IDE activity (Mus musculus (Mouse), UniProt Q9JHR7); experiment: Plasma IDE activity in mice injected with inhibitor; assay type: in vivo; details: 60 min after 10 mg/kg, 20 mg/kg, or 40 mg/kg i.p. injection, vs vehicle
plasma IDE activity, sequence (Q9JHR7 other isoform, or with tags, fused parts or gaps): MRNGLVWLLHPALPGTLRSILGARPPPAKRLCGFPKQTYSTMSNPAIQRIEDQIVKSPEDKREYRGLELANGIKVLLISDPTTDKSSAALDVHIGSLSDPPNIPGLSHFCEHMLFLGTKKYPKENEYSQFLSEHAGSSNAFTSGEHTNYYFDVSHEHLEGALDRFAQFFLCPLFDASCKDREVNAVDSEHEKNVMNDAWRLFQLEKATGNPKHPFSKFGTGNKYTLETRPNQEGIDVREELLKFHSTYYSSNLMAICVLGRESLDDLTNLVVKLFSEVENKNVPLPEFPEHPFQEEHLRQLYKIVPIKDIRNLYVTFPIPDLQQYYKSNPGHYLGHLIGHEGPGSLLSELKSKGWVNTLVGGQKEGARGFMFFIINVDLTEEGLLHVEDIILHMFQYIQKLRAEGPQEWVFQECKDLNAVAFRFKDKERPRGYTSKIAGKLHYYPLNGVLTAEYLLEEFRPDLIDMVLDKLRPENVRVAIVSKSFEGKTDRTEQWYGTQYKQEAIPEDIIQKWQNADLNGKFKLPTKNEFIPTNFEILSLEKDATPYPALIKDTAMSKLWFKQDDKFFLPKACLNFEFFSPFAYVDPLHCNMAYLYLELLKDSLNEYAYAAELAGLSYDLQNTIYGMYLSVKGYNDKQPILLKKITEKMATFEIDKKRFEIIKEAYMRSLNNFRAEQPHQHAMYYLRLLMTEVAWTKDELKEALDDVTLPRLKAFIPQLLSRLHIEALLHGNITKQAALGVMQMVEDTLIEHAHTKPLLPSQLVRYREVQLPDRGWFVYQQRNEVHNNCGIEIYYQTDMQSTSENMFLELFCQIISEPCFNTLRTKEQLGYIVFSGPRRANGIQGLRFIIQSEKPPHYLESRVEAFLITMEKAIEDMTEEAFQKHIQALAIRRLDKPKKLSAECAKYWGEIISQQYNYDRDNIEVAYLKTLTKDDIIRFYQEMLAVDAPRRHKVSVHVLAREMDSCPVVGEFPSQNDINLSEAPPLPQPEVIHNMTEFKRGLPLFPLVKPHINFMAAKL
Procedure: Finally, we compared plasma IDE activity in mice injected with 6b with plasma IDE activity in control mice injected with vehicle alone (18:1:1, saline:DMSO:Tween-80). Plasma IDE activity 60 min after 10 mg/kg, 20 mg/kg, or 40 mg/kg i.p. injection of 6b was inhibited by ≧90% (FIG. 9).

[3] = Preliminary pharmacokinetics after i.p. injection (LC-MS quantitation in plasma); details: mice, 20 mg/kg i.p.
IDE [4] = target: T1, IDE; experiment: Yonetani-Theorell double inhibition of IDE; assay type: biochemical; details: varying concentrations of both 6b and Ii1
Source text: The lack of obvious structural relationship between 6b and known IDE substrates, together with its excellent selectivity profile, raised the possibility that 6b may inhibit IDE by binding an allosteric site, rather than the active site. To test this possibility, we assayed IDE in vitro in the presence of varying concentrations of both 6b and Ii1.

[5] = target: recombinant human neprilysin (Homo sapiens (Human), UniProt P08473); experiment: In vitro protease assay with neprilysin; details: even when assayed at 100 μM
recombinant human neprilysin, sequence (P08473 whole entry): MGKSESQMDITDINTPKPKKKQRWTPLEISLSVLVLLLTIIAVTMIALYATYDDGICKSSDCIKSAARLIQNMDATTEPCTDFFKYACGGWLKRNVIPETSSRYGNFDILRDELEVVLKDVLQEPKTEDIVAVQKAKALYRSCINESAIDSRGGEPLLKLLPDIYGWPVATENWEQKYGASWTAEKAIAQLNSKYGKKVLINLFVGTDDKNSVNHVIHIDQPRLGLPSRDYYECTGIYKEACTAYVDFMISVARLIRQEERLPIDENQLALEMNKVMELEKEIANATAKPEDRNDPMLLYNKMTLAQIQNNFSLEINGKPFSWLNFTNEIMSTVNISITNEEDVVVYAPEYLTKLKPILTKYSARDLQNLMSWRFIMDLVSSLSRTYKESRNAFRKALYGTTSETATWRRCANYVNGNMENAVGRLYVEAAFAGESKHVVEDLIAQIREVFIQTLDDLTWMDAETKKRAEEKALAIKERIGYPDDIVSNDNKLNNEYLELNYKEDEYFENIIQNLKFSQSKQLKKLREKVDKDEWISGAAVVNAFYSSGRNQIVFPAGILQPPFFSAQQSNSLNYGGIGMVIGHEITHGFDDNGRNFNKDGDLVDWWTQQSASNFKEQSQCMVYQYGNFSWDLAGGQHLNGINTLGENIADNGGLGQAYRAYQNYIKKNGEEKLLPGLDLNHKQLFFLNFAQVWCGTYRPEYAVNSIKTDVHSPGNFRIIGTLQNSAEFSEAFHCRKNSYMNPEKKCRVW

recombinant human THOP1 = recombinant human THOP1 (Homo sapiens (Human), UniProt P52888); experiment: In vitro protease assay with THOP1; assay type: biochemical
recombinant human THOP1, sequence (P52888 whole entry): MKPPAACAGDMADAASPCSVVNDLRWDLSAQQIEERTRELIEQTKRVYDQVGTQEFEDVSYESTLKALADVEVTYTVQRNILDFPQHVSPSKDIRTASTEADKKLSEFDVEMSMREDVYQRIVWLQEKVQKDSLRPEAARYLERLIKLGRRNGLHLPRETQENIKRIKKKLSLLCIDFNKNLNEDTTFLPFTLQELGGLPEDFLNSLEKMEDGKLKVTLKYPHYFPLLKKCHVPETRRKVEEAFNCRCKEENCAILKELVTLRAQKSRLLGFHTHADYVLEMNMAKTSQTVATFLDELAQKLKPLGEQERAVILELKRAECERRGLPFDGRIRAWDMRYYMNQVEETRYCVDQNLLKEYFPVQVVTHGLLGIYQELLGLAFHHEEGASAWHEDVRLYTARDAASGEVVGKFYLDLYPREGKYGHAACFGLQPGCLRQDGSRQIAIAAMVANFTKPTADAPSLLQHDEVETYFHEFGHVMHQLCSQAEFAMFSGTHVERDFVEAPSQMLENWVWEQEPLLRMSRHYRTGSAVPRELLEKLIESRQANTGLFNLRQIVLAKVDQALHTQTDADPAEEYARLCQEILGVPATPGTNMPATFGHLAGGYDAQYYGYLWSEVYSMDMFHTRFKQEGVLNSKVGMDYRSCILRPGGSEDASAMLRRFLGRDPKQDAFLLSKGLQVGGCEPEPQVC
Procedure: (§1) Protease assays with THOP1 and NLN were performed using MCA-Pro-Leu-Gly-Pro-D-Lys(DNP)-OH (Bachem, SEQ ID NO: 7) and purified recombinant human THOP1 and NLN (R&D Systems) according to the manufacturer's instructions.

recombinant human NLN = recombinant human NLN (Homo sapiens (Human), UniProt Q9BYT8); experiment: In vitro protease assay with NLN; assay type: biochemical
recombinant human NLN, sequence (Q9BYT8 38-704): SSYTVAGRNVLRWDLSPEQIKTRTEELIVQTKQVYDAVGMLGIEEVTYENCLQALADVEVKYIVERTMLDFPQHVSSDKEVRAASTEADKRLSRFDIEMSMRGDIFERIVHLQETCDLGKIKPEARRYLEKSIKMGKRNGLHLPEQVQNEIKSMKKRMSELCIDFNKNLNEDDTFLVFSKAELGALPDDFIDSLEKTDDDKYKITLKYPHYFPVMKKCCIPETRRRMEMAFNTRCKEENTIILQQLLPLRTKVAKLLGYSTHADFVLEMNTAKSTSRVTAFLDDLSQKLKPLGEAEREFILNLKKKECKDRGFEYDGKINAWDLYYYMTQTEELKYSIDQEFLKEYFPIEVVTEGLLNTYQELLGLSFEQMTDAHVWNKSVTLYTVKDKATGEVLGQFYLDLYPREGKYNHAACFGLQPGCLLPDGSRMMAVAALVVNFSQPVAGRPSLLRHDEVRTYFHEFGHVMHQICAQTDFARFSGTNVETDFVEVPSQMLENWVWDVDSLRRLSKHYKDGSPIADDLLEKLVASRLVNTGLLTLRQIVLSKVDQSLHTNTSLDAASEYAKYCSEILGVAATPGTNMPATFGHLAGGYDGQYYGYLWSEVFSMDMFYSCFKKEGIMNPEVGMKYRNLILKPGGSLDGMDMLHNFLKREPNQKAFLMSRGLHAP
Procedure: as §1

[6] = Biodistribution assay (LC-MS of brain, pancreas, plasma after IP injection); assay type: in vivo, mouse; details: mice, 45 minutes after intraperitoneal injection
Procedure: Macrocycles were diluted to 0.1 mg/mL or 1 mg/mL in PBS and IP-injected into a mouse to produce a concentration of 1 mg/kg or 10 mg/kg, respectively. After 45 minutes, organs were harvested, and the small-molecule fractions were extracted into a 2:1:1 mixture of chloroform:methanol:water. Samples were evaporated under a stream of nitrogen, resuspended in 100 μL of chloroform and subjected to LC-MS analysis.
The tissue distribution of enriched macrocycles after i.p. injection was examined. […] Briefly, compounds were injected at different concentrations intraperitoneally into mice, and plasma, brain, and pancreas were harvested after 45 minutes. Vehicle-only injections were performed as negative controls. We determined the relative amount of macrocycle present by extracting the organs with organic solvents and quantifying the amount of compound present by LC-MS analysis.

Solubility = assay type: physicochemical
[7] = fluorophore-quencher model peptide

Compound: NC(=O)C1CCCCNC(=O)C(Cc2ccc(C(=O)c3ccccc3)cc2)NC(=O)C(CC2CCCCC2)NC(=O)C(CC2CC2)NC(=O)C=CC(=O)N1 (centres unmarked) [Compound 5b]
IC50 (IDE [2]; [7]): 1000 nM

Compound: NC(=O)CCC1NC(=O)C=CC(=O)NC(C(N)=O)CCCCNC(=O)C(Cc2ccc(C(=O)c3ccccc3)cc2)NC(=O)C(CC2CCCCC2)NC1=O (centres unmarked) [Compound 6b]
inhibition of trypsin (trypsin): failed to demonstrate any significant inhibition
inhibition of plasma IDE activity (plasma IDE activity): ≥ 90%
time of peak blood concentration [3]: 60 min
tolerability of injections [3]: well tolerated
peak blood concentration ([3]; 18:1:1 saline:DMSO:Tween-80): 0.2 µM
binding site relative to Ii1 (double inhibition plot) (IDE [4]): binding sites of Ii1 and 6b are distinct
inhibition of neprilysin (NEP) [5]: failed to demonstrate any significant inhibition
IC50 (IDE [2]): 140 nM
IC50 (IDE [2]; [7]): 60 nM
activation of THOP1 (recombinant human THOP1; at higher concentrations): Slight activation
inhibition of thimet oligopeptidase (THOP1) (recombinant human THOP1; even when assayed at 100 μM): failed to demonstrate any significant inhibition
activation of NLN (recombinant human NLN; at higher concentrations): Slight activation
inhibition of neurolysin (NLN) (recombinant human NLN; even when assayed at 100 μM): failed to demonstrate any significant inhibition
detection in brain [6]: none of the three compounds could be detected
detection in pancreas [6]: could be detected
detection in plasma [6]: could be detected
macrocycle concentration in plasma (comparison) [6]: comparable

Compound: NC(=O)C1CCCCNC(=O)C(Cc2ccc(C(=O)c3ccccc3)cc2)NC(=O)C(CC2CCCCC2)NC(=O)CC(O)C(CC2CCCCC2)NC(=O)C=CC(=O)N1 (centres unmarked) [Compound 3a]
IC50 (IDE [2]; [7]): > 20000 nM

Compound: NC(=O)CCC1NC(=O)C=CC(=O)NC(C(N)=O)CCCCNC(=O)C(Cc2ccc(C(=O)c3ccccc3)cc2)NC(=O)C(CC2CCCCC2)NC1=O (mixture of isomers) [Compound 6]
enrichment against IDE (IDE [1]; IDE selection 1, one round): 4- to 14 fold
enrichment against IDE (IDE [1]; replicate IDE selection 2): 3- to 6 fold
potency of trans-olefin isomer relative to corresponding cis-olefin isomer (IDE [2]): > 10 fold

Compound: NC(=O)CCC1NC(=O)C=CC(=O)NC(C(N)=O)CCCCNC(=O)C(Cc2ccc(C(=O)c3ccccc3)cc2)NC(=O)C(CC2CCCCC2)NC1=O (centres unmarked) [Compound 6a]
IC50 (IDE [2]; [7]): 5600 nM

Compound: NC(=O)C1CCCCNC(=O)CNC(=O)C(CC2CCCCC2)NC(=O)CC(O)C(CC2CCCCC2)NC(=O)C=CC(=O)N1 (mixture of isomers) [Compound 4]
enrichment against IDE (in words) (IDE [1]): less strongly enriched
activity / potency against IDE (in words) (IDE [2]): inactive

Compound: N=C(N)NCCC[C@H](NC(=O)[C@@H](CC(=O)NO)Cc1ccc2ccccc2c1)C(=O)N[C@@H](Cc1c[nH]c2ccccc12)C(=O)N[C@@H](CCC(=O)O)C(N)=O [Ii1, reference compound]
IC50 (recombinant human THOP1): 6 nM
IC50 (recombinant human NLN): 150 nM

Results, then the compound that gave them:

enrichment against IDE (IDE [1]; IDE selection 1, one round): 4- to 14 fold
enrichment against IDE (IDE [1]; replicate IDE selection 2): 3- to 6 fold
IC50 (IDE [2]; [7]): 10000 nM
Compound: N=C(N)NCCCC1NC(=O)C=CC(=O)NC(C(N)=O)CCCCNC(=O)C(Cc2ccc(C(=O)c3ccccc3)cc2)NC(=O)C(CC2CCCCC2)NC1=O (centres unmarked) [Compound 2]

IC50 (IDE [2]; [7]): > 100000 nM
Compound: NC(=O)C1CCCCNC(=O)CNC(=O)C(CC2CCCCC2)NC(=O)CC(O)C(CC2CCCCC2)NC(=O)C=CC(=O)N1 (centres unmarked) [Compound 4a]

IC50 (IDE [2]; [7]): > 20000 nM
Compound: NC(=O)C1CCCCNC(=O)C(Cc2ccc(C(=O)c3ccccc3)cc2)NC(=O)C(CC2CCCCC2)NC(=O)C(CC2CC2)NC(=O)C=CC(=O)N1 (centres unmarked) [Compound 5a]

enrichment against IDE (IDE [1]; IDE selection 1, one round): 4- to 14 fold
enrichment against IDE (IDE [1]; replicate IDE selection 2): 3- to 6 fold
potency of trans-olefin isomer relative to corresponding cis-olefin isomer (IDE [2]): > 10 fold
Compound: NC(=O)C1CCCCNC(=O)C(Cc2ccc(C(=O)c3ccccc3)cc2)NC(=O)C(CC2CCCCC2)NC(=O)CC(O)C(CC2CCCCC2)NC(=O)C=CC(=O)N1 (mixture of isomers) [Compound 3]

enrichment against IDE (IDE [1]; IDE selection 1, one round): 4- to 14 fold
enrichment against IDE (IDE [1]; replicate IDE selection 2): 3- to 6 fold
potency of trans-olefin isomer relative to corresponding cis-olefin isomer (IDE [2]): > 10 fold
Compound: NC(=O)C1CCCCNC(=O)C(Cc2ccc(C(=O)c3ccccc3)cc2)NC(=O)C(CC2CCCCC2)NC(=O)C(CC2CC2)NC(=O)C=CC(=O)N1 (mixture of isomers) [Compound 5]

IC50 (IDE [2]; [7]): 1500 nM
Compound: NC(=O)C1CCCCNC(=O)C(Cc2ccc(C(=O)c3ccccc3)cc2)NC(=O)C(CC2CCCCC2)NC(=O)CC(O)C(CC2CCCCC2)NC(=O)C=CC(=O)N1 (centres unmarked) [Compound 3b]

enrichment against IDE (in words) (IDE [1]): less strongly enriched
activity / potency against IDE (in words) (IDE [2]): inactive
IC50 (IDE [2]; [7]): > 100000 nM
Compound: NC(=O)CCC1NC(=O)C=CC(=O)NC(C(N)=O)CCCCNC(=O)CNC(=O)C(CC2CCCCC2)NC1=O (centres unmarked) [Compound 1]

activity / potency against IDE (in words) (IDE [2]): equipotent
solubility in water or saline (Solubility): < 100 mM
Compound: NCCCC[C@@H]1NC(=O)/C=C/C(=O)NC(C(N)=O)CCCCNC(=O)[C@@H](Cc2ccc(C(=O)c3ccccc3)cc2)NC(=O)[C@H](CC2CCCCC2)NC1=O (some centres unmarked) [Compound 20]
